Experimental data published in patent KR20180087157A, “Blt 저해 활성을 갖는 화합물을 유효성분으로 포함하는 만성 폐쇄성 폐질환 예방 또는 치료용 약학적 조성물” (동국대학교 산학협력단, priority 2017, dated 2018).
One block for each compound: values may come before it.

Legend:
[1] = system: BLT2-expressing cells [BLT2가 발현된 세포 (CHO-BLT2 cells)]; test: LTB4-induced BLT2-dependent chemotactic motility (Transwell), CHO-BLT2; assay type: cell-based, human; conditions: for inhibition of chemotaxis: LTB4-stimulated CHO-BLT2 cells, result in words; for IC50: read-out: IC50 (50% inhibitory concentration), chemotaxis, CHO-BLT2 cells, LTB4-induced, serum-free; for inhibition at 10 µM: 10 μM pretreatment, compared with LTB4 (300 nM) treatment (DMSO+), read-out: chemotaxis inhibition
[2] = system: BLT1-expressing cells [BLT1이 발현된 세포 (CHO-BLT1)]; test: LTB4-induced chemotactic motility (Transwell), CHO-BLT1; assay type: cell-based
[3] = system: BLT2-expressing cells [BLT2가 발현된 세포 (CHO-BLT2 cells)]; test: LPA-induced chemotactic motility (Transwell), CHO-BLT2; assay type: cell-based, human
[4] = system: neutrophil elastase (NE); test: NE measurement in BALF, cigarette smoke and LPS induced COPD mice; assay type: in vivo, mouse; conditions: C57BL/6N mice, oral 1 h before smoke, result in words
[5] = system: BLT2-expressing cells [BLT2가 발현된 세포 (CHO-BLT2 cells)]; test: Growth inhibition of BLT2-expressing cells (MTT cell viability); assay type: cell-based; conditions: for inhibition of BLT2-induced cell proliferation: 10 μM, LTB4 300 nM, result in words; for inhibition at 10 µM: 10 μM pretreatment 1 h, then LTB4 300 nM, 24 h, read-out: growth inhibition effect
[6] = system: cigarette smoke and lipopolysaccharide induced chronic obstructive pulmonary disease animal model [담배연기 및 지질다당류로 유발된 만성 폐쇄성 폐질환 동물 모델]; test: H&E staining of lung tissue, cigarette smoke and LPS induced COPD mice; assay type: in vivo, mouse; conditions: C57BL/6N mice; for improvement of lung inflammation: cigarette smoke + LPS COPD model, overall result in words; for infiltration of inflammatory cells (H&E): cigarette smoke + LPS, 10 or 20 mg/kg oral, lung tissue, compared with COPD group, result in words
[7] = system: TNF-α; test: TNF-α measurement in BALF, cigarette smoke and LPS induced COPD mice; assay type: in vivo, mouse; conditions: C57BL/6N mice, oral 1 h before smoke, result in words
[8] = system: inflammatory cells (neutrophils) [염증세포(호중구)]; test: Inflammatory cell infiltration in BALF, cigarette smoke and LPS induced COPD mice; assay type: in vivo, mouse; conditions: C57BL/6N mice, oral 1 h before smoke, result in words
[9] = system: reactive oxygen species (ROS); test: ROS measurement in BALF, cigarette smoke and LPS induced COPD mice; assay type: in vivo, mouse; conditions: C57BL/6N mice, oral 1 h before smoke, result in words
[10] = system: IL-6; test: IL-6 measurement in BALF, cigarette smoke and LPS induced COPD mice; assay type: in vivo, mouse; conditions: C57BL/6N mice, oral 1 h before smoke, result in words
[11] = 10 μM pretreatment, compared with LTB4 (10 nM) treatment (DMSO+), result in words

Structure (SMILES): CCCCC(=O)N(Cc1ccc(-c2ccc(OCC(=O)O)cc2)cc1)c1cccc(F)c1 [AC-1074, 2-(4'-((N-(3-fluorophenyl)pentanamido)methyl)biphenyl-4-yloxy)acetic acid]
inhibition of chemotaxis [1]: 현저히 저해 | change in chemotaxis [2, 11]: 변화가 없음 | change in chemotaxis ([3]; 10 μM pretreatment, compared with LPA (100 nM) treatment (DMSO+), result in words): 변화가 없음

Structure (SMILES): CCCCC(=O)N(CC#Cc1ccc(C(=O)O)cc1)c1ccccc1 [LMT-1013, 4-(3-(N-phenylpentanamido)prop-1-yn-1-yl)benzoic acid]
NE production [4]: 유의적으로 감소 | inhibition of BLT2-induced cell proliferation [5]: 매우 우수한 효율로 억제 | improvement of lung inflammation [6]: 폐의 염증을 개선하는 효능 | infiltration of inflammatory cells (H&E) [6]: 감소 | TNF-α production [7]: 현저히 감소 | infiltration of inflammatory cells (neutrophils) [8]: 유의적으로 감소 | ROS production [9]: 유의적으로 감소 | IC50 ([1]; Homo sapiens): 62.4 nM | inhibition of chemotaxis [1]: 현저히 저해 | IC50 ([2]; read-out: IC50 (50% inhibitory concentration), chemotaxis, CHO-BLT1 cells, LTB4-induced, serum-free): ≥ 10000 nM | IL-6 production [10]: 현저히 감소

Structure (SMILES): CCCCC(=O)N(CC#Cc1ccc(C(=O)N2CCN(C(C)C)CC2)cc1)c1ccc(F)cc1 [LMT-841, N-(4-fluorophenyl)-N-(3-(4-(4-isopropylpiperazine-1-carbonyl)phenyl)prop-2-ynyl)pentanamide]
inhibition at 10 µM [5]: 60% | inhibition of BLT2-induced cell proliferation [5]: 매우 우수한 효율로 억제

Structure (SMILES): CCCCC(=O)N(CC#Cc1ccc(C(=O)N2CCNCC2)cc1)c1ccccc1 [LMT-694, N-phenyl-N-(3-(4-(piperazine-1-carbonyl)phenyl)prop-2-ynyl)pentanamide]
inhibition at 10 µM ([1]; Homo sapiens): 90% | chemotaxis inhibition [2, 11]: 억제되지 않음

Structure (SMILES): CCCCC(=O)N(CC#Cc1ccc(C(=O)N(CC)CC)cc1)c1ccccc1 [LMT-883, N,N-diethyl-4-(3-(N-phenylpentanamido)prop-1-ynyl)benzamide]
inhibition at 10 µM [5]: 99% | inhibition of BLT2-induced cell proliferation [5]: 매우 우수한 효율로 억제

Structure (SMILES): CCCCC(=O)N(CC#Cc1ccc(C(=O)N2CCN(C)CC2)cc1)c1ccccc1 [LMT-692, N-(3-(4-(4-methylpiperazine-1-carbonyl)phenyl)prop-2-ynyl)-N-phenylpentanamide]
inhibition of BLT2-induced cell proliferation [5]: 매우 우수한 효율로 억제 | IC50 ([1]; Homo sapiens): 7570 nM | inhibition at 10 µM ([1]; Homo sapiens): 66% | inhibition of chemotaxis [1]: 현저히 저해 | chemotaxis inhibition [2, 11]: 억제되지 않음

Structure (SMILES): CCCCC(=O)N(CC#Cc1ccc(C(=O)NC(C)C(=O)O)cc1)c1ccccc1 (centres unmarked) [LMT-1019, 2-(4-(3-(N-phenylpentanamido)prop-1-yn-1-yl)benzamido)propanoic acid]
inhibition at 10 µM [5]: 99% | inhibition of BLT2-induced cell proliferation [5]: 매우 우수한 효율로 억제

Structure (SMILES): CCCCC(=O)N(CC#Cc1ccc(C(=O)NCCN(C)C)cc1)c1ccccc1 [LMT-1016, N-(2-(dimethylamino)ethyl)-4-(3-(N-phenylpentanamido)prop-1-yn-1-yl)benzamide]
inhibition at 10 µM [5]: 99% | inhibition of BLT2-induced cell proliferation [5]: 매우 우수한 효율로 억제

Structure (SMILES): CCCCC(=O)N(Cc1ccc(-c2ccc(C(=O)N3CCN(C(C)C)CC3)cc2)cc1)c1ccc(F)cc1 [AC-1650, N-(4-fluorophenyl)-N-((4'-(4-isopropylpiperazine-1-carbonyl)biphenyl-4-yl)methyl)pentanamide]
inhibition at 10 µM [5]: 82.2% | inhibition of BLT2-induced cell proliferation [5]: 매우 우수한 효율로 억제

Structure (SMILES): CCCCC(=O)N(CC#Cc1ccc(C(=O)N2CCN(C(C)C)CC2)cc1)c1ccccc1 [LMT-696, N-(3-(4-(4-isopropylpiperazine-1-carbonyl)phenyl)prop-2-ynyl)-N-phenylpentanamide]
inhibition of BLT2-induced cell proliferation [5]: 매우 우수한 효율로 억제 | IC50 ([1]; Homo sapiens): 2000 nM | inhibition at 10 µM ([1]; Homo sapiens): 70.3% | inhibition of chemotaxis [1]: 현저히 저해 | chemotaxis inhibition [2, 11]: 억제되지 않음

Structure (SMILES): CCCCC(=O)N(CC#Cc1cccc(C(=O)N2CCN(C(C)C)CC2)c1)c1ccccc1 [LMT-842, N-(3-(3-(4-isopropylpiperazine-1-carbonyl)phenyl)prop-2-ynyl)-N-phenylpentanamide]
inhibition at 10 µM [5]: 70% | inhibition of BLT2-induced cell proliferation [5]: 매우 우수한 효율로 억제

increase in cell chemotaxis ([1]; LTB4 300 nM (DMSO+) compared with ethanol (DMSO-), 180 min, 0.3 µM): 2.9 fold | increase in cell chemotaxis ([2]; cho-blt1 cells, 3 h, 0.01 µM): 2.8 fold
Structure (SMILES): CCCCC/C=C\C[C@@H](O)/C=C/C=C/C=C\[C@@H](O)CCCC(=O)O [LTB4, Leukotriene B4, reference compound]
fold induction at 0.3 µM ([1]; Homo sapiens, 3 h, LTB4 300 nM (DMSO+) compared with ethanol (DMSO-), read-out: increase in cell chemotaxis): 2.4 | fold induction at 0.01 µM ([2]; 3 h, LTB4 10 nM (DMSO+) compared with ethanol (DMSO-), read-out: increase in cell chemotaxis): 2.2

Structure (SMILES): CCCCC(=O)N(Cc1ccc(-c2ccc(O)cc2)cc1)c1cccc(C(F)(F)F)c1 [AC-1635, N-((4'-hydroxybiphenyl-4-yl)methyl)-N-(3-(trifluoromethyl)phenyl)pentanamide]
inhibition at 10 µM [5]: 71.6% | inhibition of BLT2-induced cell proliferation [5]: 매우 우수한 효율로 억제

Structure (SMILES): CCCCCCCC/C=C\CCCCCCCC(=O)OC[C@@H](O)COP(=O)(O)O [LPA, lysophosphatidic acid, reference compound]
fold induction at 0.1 µM ([3]; Homo sapiens, 3 h, LPA 100 nM (DMSO+) compared with ethanol (DMSO-), read-out: increase in cell chemotaxis): 3.4

Structure (SMILES): CCCCC(=O)N(CC#Cc1cccc(C(=O)N2CCNCC2)c1)c1ccccc1 [LMT-837, N-phenyl-N-(3-(3-(piperazine-1-carbonyl)phenyl)prop-2-ynyl)pentanamide]
inhibition at 10 µM [5]: 65% | inhibition of BLT2-induced cell proliferation [5]: 매우 우수한 효율로 억제

Structure (SMILES): CCCCC(=O)N(Cc1ccc(-c2ccc(O)cc2)cc1)c1cccc(Br)c1 [AC-1632, N-(3-bromophenyl)-N-((4'-hydroxybiphenyl-4-yl)methyl)pentanamide]
inhibition at 10 µM [5]: 78.7% | inhibition of BLT2-induced cell proliferation [5]: 매우 우수한 효율로 억제

Structure (SMILES): COc1ccc(-c2ccc(CN(C(C)=O)c3cccc(F)c3)cc2)cc1 [AC-1646, N-(3-fluorophenyl)-N-((4'-methoxybiphenyl-4-yl)methyl)acetamide]
inhibition at 10 µM [5]: 72.1% | inhibition of BLT2-induced cell proliferation [5]: 매우 우수한 효율로 억제

Structure (SMILES): CCCCC(=O)N(CC#Cc1ccc(C(=O)N2CCN(C(C)C)CC2)cc1)c1cccc(F)c1 [LMT-886, N-(3-fluorophenyl)-N-(3-(4-(4-isopropylpiperazine-1-carbonyl)phenyl)prop-2-ynyl)pentanamide]
NE production [4]: 유의적으로 감소 | inhibition at 10 µM [5]: 99% | inhibition of BLT2-induced cell proliferation [5]: 매우 우수한 효율로 억제 | improvement of lung inflammation [6]: 폐의 염증을 개선하는 효능 | infiltration of inflammatory cells (H&E) [6]: 감소 | TNF-α production [7]: 현저히 감소 | infiltration of inflammatory cells (neutrophils) [8]: 유의적으로 감소 | ROS production [9]: 유의적으로 감소 | IL-6 production [10]: 현저히 감소

Structure (SMILES): CCCCC(=O)N(CC#Cc1ccc(C(=O)NC(C)C(=O)OC)cc1)c1ccccc1 (centres unmarked) [LMT-1018, methyl 2-(4-(3-(N-phenylpentanamido)prop-1-yn-1-yl)benzamido)propanoate]
inhibition at 10 µM [5]: 71.6% | inhibition of BLT2-induced cell proliferation [5]: 매우 우수한 효율로 억제
